Source: patent publication US20150105252A1, “SUBSTITUTED PYRAZOLES AS HERBICIDES” (E I DU PONT DE NEMOURS AND COMPANY, priority 2013, published 2015)

Tests used:
barnyardgrass [1] = test: Test A preemergence; format: in vivo, Echinochloa crus-galli
In short: (§1)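 Visual injury rating, 0–100 (0 no effect, 100 complete control), vs untreated controls ~10 days after treatment in greenhouse. Pre: directed soil spray on seeded loam/sand. Post: 2–10 cm plants, 1–2 leaf stage. Formulation: non-phytotoxic solvent mix + surfactant.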

crabgrass, large [2] = test: Test A preemergence; format: in vivo, Digitaria sanguinalis
In short: as §1

foxtail, giant [3] = test: Test A preemergence; format: in vivo, Setaria faberii
In short: as §1

morningglory [4] = test: Test A preemergence; format: in vivo, Ipomoea spp.
In short: as §1

pigweed [5] = test: Test A preemergence; format: in vivo, Amaranthus retroflexus
In short: as §1

velvetleaf [6] = test: Test A preemergence; format: in vivo, Abutilon theophrasti
In short: as §1

wheat [7] = test: Test A preemergence; format: in vivo, Triticum aestivum; details: preemergence
In short: as §1

corn [8] = test: Test A preemergence; format: in vivo, Zea mays
In short: as §1

barnyardgrass [9] = test: Test A postemergence; format: in vivo, Echinochloa crus-galli; details: Postemergence
In short: as §1

crabgrass, large [10] = test: Test A postemergence; format: in vivo, Digitaria sanguinalis
In short: as §1

foxtail, giant [11] = test: Test A postemergence; format: in vivo, Setaria faberii
In short: as §1

morningglory [12] = test: Test A postemergence; format: in vivo, Ipomoea spp.
In short: as §1

pigweed [13] = test: Test A postemergence; format: in vivo, Amaranthus retroflexus
In short: as §1

velvetleaf [14] = test: Test A postemergence; format: in vivo, Abutilon theophrasti
In short: as §1

wheat [15] = test: Test A postemergence; format: in vivo, Triticum aestivum
In short: as §1

corn [16] = test: Test A postemergence; format: in vivo, Zea mays
In short: as §1

rice = test: Test B flood; format: in vivo, Oryza sativa; details: 250 g ai/ha, visual rating on 0 to 100 scale (0 no effect, 100 complete control), 13 to 15 days
Description: (§2) Seeds selected from rice (Oryza sativa), sedge, umbrella (small-flower umbrella sedge Cyperus difformis), ducksalad (Heteranthera limosa), and barnyardgrass (Echinochloa crus-galli) were grown to the 2-leaf stage for testing. At time of treatment, test pots were flooded to 3 cm above the soil surface, treated by application of test compounds directly to the paddy water, and then maintained at that water depth for the duration of the test.
(§3) Treated plants and controls were maintained in a greenhouse for 13 to 15 days, after which time all species were compared to controls and visually evaluated. Plant response ratings, summarized in Table B, are based on a scale of 0 to 100 where 0 is no effect and 100 is complete control. A dash (-) response means no test result.

sedge, umbrella = test: Test B flood; format: in vivo, Cyperus difformis; details: 250 g ai/ha, visual rating on 0 to 100 scale (0 no effect, 100 complete control), 13 to 15 days
Description: as §2, §3

ducksalad = test: Test B flood; format: in vivo, Heteranthera limosa; details: 250 g ai/ha, visual rating on 0 to 100 scale (0 no effect, 100 complete control), 13 to 15 days
In short: (§4)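 At two leaves, seedlings received the test compound via the paddy water, pots having been flooded 3 cm over the soil surface and kept so. Greenhouse-held for 13 to 15 days, then judged by eye against controls on a scale running 0 (no effect) to 100 (complete control).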

barnyardgrass [17] = test: Test B flood; format: in vivo, Echinochloa crus-galli; details: 250 g ai/ha, visual rating on 0 to 100 scale (0 no effect, 100 complete control), 13 to 15 days
In short: as §4

[18] = Preemergence, 500 g ai/ha, 0 to 100 scale, 0 no effect, 100 complete control
[19] = preemergence, 125 g ai/ha, visual injury, 0 to 100 scale, approx. 10 days
[20] = 125 g ai/ha, visual injury, 0 to 100 scale, approx. 10 days
[21] = 500 g ai/ha, visual injury after approx. 10 days, 0 to 100 scale (0 no effect, 100 complete control)
[22] = 125 g ai/ha, 0 to 100 scale, 0 no effect, 100 complete control
[23] = 500 g ai/ha, visual rating after approx. 10 days, 0 to 100 scale (0 no effect, 100 complete control)
[24] = Postemergence, 500 g ai/ha, visual rating after approx. 10 days, 0 to 100 scale (0 no effect, 100 complete control)
[25] = postemergence, 125 g ai/ha, about 10 days, visual rating on 0 to 100 scale (0 no effect, 100 complete control)
[26] = preemergence, 500 g ai/ha, visual injury after approx. 10 days, 0 to 100 scale (0 no effect, 100 complete control)

Row | SMILES | Barnyardgrass plant response rating (barnyardgrass [1]; [19]) | Crabgrass, Large plant response rating (crabgrass, large [2]; [19]) | Foxtail, Giant plant response rating (foxtail, giant [3]; [19]) | Morningglory plant response rating (morningglory [4]; [19]) | Pigweed plant response rating (pigweed [5]; [19]) | Velvetleaf plant response rating (velvetleaf [6]; [19]) | Wheat plant response rating (wheat [7]; [20]) | Wheat plant response rating (wheat [7]; [21]) | Corn plant response rating (corn [8]; [19]) | Barnyardgrass plant response rating (barnyardgrass [9]; [22]) | Barnyardgrass plant response rating (barnyardgrass [9]; [23]) | Crabgrass, Large plant response rating (crabgrass, large [10]; [24]) | Crabgrass, Large plant response rating (crabgrass, large [10]; [25]) | Foxtail, Giant plant response rating (foxtail, giant [11]; [24]) | Foxtail, Giant plant response rating (foxtail, giant [11]; [25]) | Morningglory plant response rating (morningglory [12]; [24]) | Morningglory plant response rating (morningglory [12]; [25]) | Pigweed plant response rating (pigweed [13]; [24]) | Pigweed plant response rating (pigweed [13]; [25]) | Velvetleaf plant response rating (velvetleaf [14]; [24]) | further results
1 | CCc1cc(C(=O)NC2CC2)nn1Oc1ccnc(C(F)(F)F)c1 [Compound 83, N-cyclopropyl-5-ethyl-1-[[(2-trifluoromethyl)-4-pyridinyl]oxy]-1H-pyrazole-3-carboxamide] | 10 | 100 | 70 | 10 | 90 | 0 | 0 | 60 | 10 | 10 | 40 | 60 | 30 | 60 | 20 | 70 | 20 | 20 | 10 | 30 | Barnyardgrass plant response rating (barnyardgrass [1]; [18]): 90; Crabgrass, Large plant response rating (crabgrass, large [2]; [18]): 100; Foxtail, Giant plant response rating (foxtail, giant [3]; [18]): 100; Morningglory plant response rating (morningglory [4]; [18]): 50; Pigweed plant response rating (pigweed [5]; [18]): 100; Velvetleaf plant response rating (velvetleaf [6]; [18]): 10; Corn plant response rating (corn [8]; [18]): 60; Velvetleaf plant response rating (velvetleaf [14]; [25]): 30; Wheat plant response rating (wheat [15]; [24]): 40; Wheat plant response rating (wheat [15]; [25]): 0; Corn plant response rating (corn [16]; [24]): 70; Corn plant response rating (corn [16]; [25]): 10; Plant response rating, Rice (rice): 10; Plant response rating, Sedge, Umbrella (sedge, umbrella): 70; Plant response rating, Ducksalad (ducksalad): 60; Plant response rating, Barnyardgrass (barnyardgrass [17]): 0
2 | CCc1cc(C(=O)NCC(F)(F)F)nn1Oc1ccnc(C(F)(F)F)c1 [Compound 84] | 10 | 90 | 40 | 0 | 50 | 0 | 0 | 50 | 10 | 10 | 30 | 50 | 20 | 50 | 10 | 70 | 20 | 20 | 10 | 30 | Barnyardgrass plant response rating (barnyardgrass [1]; [18]): 70; Crabgrass, Large plant response rating (crabgrass, large [2]; [18]): 100; Foxtail, Giant plant response rating (foxtail, giant [3]; [18]): 80; Morningglory plant response rating (morningglory [4]; [18]): 30; Pigweed plant response rating (pigweed [5]; [18]): 100; Velvetleaf plant response rating (velvetleaf [6]; [18]): 50; Corn plant response rating (corn [8]; [18]): 40; Velvetleaf plant response rating (velvetleaf [14]; [25]): 20; Wheat plant response rating (wheat [15]; [24]): 40; Wheat plant response rating (wheat [15]; [25]): 0; Corn plant response rating (corn [16]; [24]): 40; Corn plant response rating (corn [16]; [25]): 10; Plant response rating, Rice (rice): 0; Plant response rating, Sedge, Umbrella (sedge, umbrella): 60; Plant response rating, Ducksalad (ducksalad): 20; Plant response rating, Barnyardgrass (barnyardgrass [17]): 0
3 | CCCCNC(=O)c1cc(CC)n(Oc2ccnc(C(F)(F)F)c2)n1 [Compound 86] | 0 | 50 | 0 | 0 | 0 | 0 | 0 | 0 | 0 | 0 | 20 | 50 | 10 | 40 | 10 | 60 | 10 | 0 | 0 | 40 | Barnyardgrass plant response rating (barnyardgrass [1]; [26]): 50; Crabgrass, Large plant response rating (crabgrass, large [2]; [26]): 80; Foxtail, Giant plant response rating (foxtail, giant [3]; [26]): 80; Morningglory plant response rating (morningglory [4]; [26]): 20; Pigweed plant response rating (pigweed [5]; [26]): 0; Velvetleaf plant response rating (velvetleaf [6]; [26]): 0; Corn plant response rating (corn [8]; [26]): 20; Velvetleaf plant response rating (velvetleaf [14]; [25]): 30; Wheat plant response rating (wheat [15]; [24]): 10; Wheat plant response rating (wheat [15]; [25]): 0; Corn plant response rating (corn [16]; [24]): 30; Corn plant response rating (corn [16]; [25]): 10; Plant response rating, Rice (rice): 0; Plant response rating, Sedge, Umbrella (sedge, umbrella): 40; Plant response rating, Ducksalad (ducksalad): 0; Plant response rating, Barnyardgrass (barnyardgrass [17]): 0
